The values below come from ChEMBL document CHEMBL4196200 (J Med Chem, 2018).

Structures are written as SMILES.

Assay [1] addresses T1, Vasopressin V2 receptor (Homo sapiens, UniProt P30518). Kind of assay: Displacement of [3H]-AVP from human V2 receptor expressed in human HeLa cell membranes incubated for 2 hrs by scintillation counting method.
In assay [2] the target is T2, Vasopressin V1b receptor (Homo sapiens, UniProt P47901).
T2 sequence (P47901 whole entry): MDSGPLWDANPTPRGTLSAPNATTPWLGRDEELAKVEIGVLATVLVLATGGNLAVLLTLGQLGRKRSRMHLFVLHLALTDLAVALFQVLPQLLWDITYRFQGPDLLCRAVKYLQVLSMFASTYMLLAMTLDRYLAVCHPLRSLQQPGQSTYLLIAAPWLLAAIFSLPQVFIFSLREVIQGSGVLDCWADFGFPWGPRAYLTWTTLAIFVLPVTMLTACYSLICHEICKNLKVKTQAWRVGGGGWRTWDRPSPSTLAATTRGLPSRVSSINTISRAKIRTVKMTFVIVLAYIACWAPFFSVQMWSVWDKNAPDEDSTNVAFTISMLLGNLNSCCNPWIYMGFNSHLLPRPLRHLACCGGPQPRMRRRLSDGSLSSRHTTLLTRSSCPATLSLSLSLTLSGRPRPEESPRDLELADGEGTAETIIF
Kind of assay: Displacement of [3H]-AVP from human V1B receptor expressed in human HeLa cell membranes incubated for 2 hrs by scintillation counting method. In general terms: Displacement assays read how much labelled ligand stays bound in the presence of the test substance.

In assay [3] the target is T1, Vasopressin V2 receptor. The assay can be described thus: Agonist activity at human V2 receptor expressed in human HeLa cells assessed as stimulation of cAMP accumulation by radioimmunoassay. It is filed as functional, cell-based.
Assay [4] addresses T3, Vasopressin V1a receptor (Homo sapiens, UniProt P37288). Kind of assay: Displacement of [3H]-AVP from human V1A receptor expressed in human HeLa cell membranes incubated for 2 hrs by scintillation counting method.
Target sequence in this assay (P37288 whole entry): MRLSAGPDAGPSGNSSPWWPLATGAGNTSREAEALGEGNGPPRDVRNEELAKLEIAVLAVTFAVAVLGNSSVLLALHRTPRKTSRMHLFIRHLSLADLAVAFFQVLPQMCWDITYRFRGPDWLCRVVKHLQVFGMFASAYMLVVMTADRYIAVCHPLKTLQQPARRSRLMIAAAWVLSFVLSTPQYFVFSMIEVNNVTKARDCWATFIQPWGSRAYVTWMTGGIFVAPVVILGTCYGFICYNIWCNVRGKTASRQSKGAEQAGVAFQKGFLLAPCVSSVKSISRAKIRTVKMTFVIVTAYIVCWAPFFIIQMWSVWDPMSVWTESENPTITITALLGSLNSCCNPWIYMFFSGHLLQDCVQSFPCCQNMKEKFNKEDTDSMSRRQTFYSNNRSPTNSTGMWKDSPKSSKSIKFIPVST
The target in assay [5] is T4, Oxytocin receptor (Homo sapiens, UniProt P30559).
T4 sequence (P30559 whole entry): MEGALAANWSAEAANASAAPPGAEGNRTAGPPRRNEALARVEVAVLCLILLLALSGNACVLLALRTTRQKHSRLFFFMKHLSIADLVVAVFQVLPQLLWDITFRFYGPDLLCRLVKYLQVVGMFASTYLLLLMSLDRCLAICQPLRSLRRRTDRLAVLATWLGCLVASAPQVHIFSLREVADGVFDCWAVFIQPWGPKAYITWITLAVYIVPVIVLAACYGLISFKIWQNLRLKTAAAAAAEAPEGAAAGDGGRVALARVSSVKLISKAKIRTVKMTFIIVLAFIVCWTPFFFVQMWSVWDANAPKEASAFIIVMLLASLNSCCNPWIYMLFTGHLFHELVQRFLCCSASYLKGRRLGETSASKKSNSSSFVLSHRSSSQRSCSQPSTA
The assay can be described thus: Displacement of [3H]-oxytocin from OTR receptor in human USMC cell membranes.

The target of assay [6] is T1, Vasopressin V2 receptor. The assay can be described thus: Displacement of [3H]-AVP from human V2 receptor expressed in CHO cell membranes.
Assay [7] addresses T3, Vasopressin V1a receptor. Kind of assay: Displacement of [3H]-AVP from human V1A receptor expressed in CHO cell membranes.
Target sequence in this assay (P37288 whole entry): as the sequence (P37288 whole entry) above
The target in assay [8] is T2, Vasopressin V1b receptor. The assay can be described thus: Displacement of [3H]-AVP from human V1B receptor expressed in CHO cell membranes.
The target of assay [9] is T5, Oxytocin receptor (Rattus norvegicus, UniProt P70536).
T5 sequence (P70536 whole entry): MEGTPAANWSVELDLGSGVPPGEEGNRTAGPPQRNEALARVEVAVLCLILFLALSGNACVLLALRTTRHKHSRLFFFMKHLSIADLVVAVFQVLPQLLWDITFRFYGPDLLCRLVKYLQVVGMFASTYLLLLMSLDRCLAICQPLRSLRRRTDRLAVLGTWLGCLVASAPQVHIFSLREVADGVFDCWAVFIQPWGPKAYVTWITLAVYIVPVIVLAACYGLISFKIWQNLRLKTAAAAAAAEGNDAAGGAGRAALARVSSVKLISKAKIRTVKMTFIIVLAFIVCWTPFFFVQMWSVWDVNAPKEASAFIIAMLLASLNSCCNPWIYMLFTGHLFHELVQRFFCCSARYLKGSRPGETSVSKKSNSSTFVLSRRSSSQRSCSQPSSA
Kind of assay: Antagonist activity at OXR receptor in rat uterus. It is filed as functional.

In assay [10] the target is T1, Vasopressin V2 receptor. The assay can be described thus: Binding affinity to V2 receptor (unknown origin).
For assay [11], the species on record is Homo sapiens. The assay can be described thus: Selectivity for human V1a receptor over human V2 receptor.
Assay [12] deals with T3, Vasopressin V1a receptor. Kind of assay: Antagonist activity at V1A receptor (unknown origin) by cAMP accumulation assay. It is filed as functional. (cAMP levels reflect the balance of adenylyl cyclase and phosphodiesterase activity.)
Target sequence in this assay (P37288 whole entry): as the sequence (P37288 whole entry) above
Assay [13] deals with T3, Vasopressin V1a receptor. Kind of assay: Antagonist activity at human V1A receptor expressed in CHO cells assessed as inhibition of AVP-induced myo-inositol 1-phosphate accumulation at 1 uM by IP-One assay relative to AVP. It is filed as functional, cell-based.
Target sequence in this assay (P37288 whole entry, looked up): as the sequence (P37288 whole entry) above
Assay [14] concerns the target T3, Vasopressin V1a receptor. The assay can be described thus: Binding affinity to V1A receptor (unknown origin).
Target sequence in this assay (P37288 whole entry): as the sequence (P37288 whole entry) above
Assay [15] has as its target T2, Vasopressin V1b receptor. The assay can be described thus: Binding affinity to V1B receptor (unknown origin).
Assay [16] addresses T1, Vasopressin V2 receptor. The assay can be described thus: Agonist activity at V2 receptor (unknown origin) by cAMP accumulation assay. It is filed as functional.
For assay [17], the target named is T3, Vasopressin V1a receptor. Kind of assay: Agonist activity at human V1A receptor expressed in CHO cells assessed as increase in myo-inositol 1-phosphate accumulation at 1 uM by IP-One assay relative to AVP. It is filed as functional, cell-based.
Target sequence in this assay (P37288 whole entry, looked up): as the sequence (P37288 whole entry) above
The species entered for assay [18] is Homo sapiens. The assay can be described thus: Selectivity for human OTR receptor over human V2 receptor.
Assay [19] has as its target T4, Oxytocin receptor. The assay can be described thus: Binding affinity to OTR receptor (unknown origin).
Assay [20] deals with T6, Vasopressin V1b receptor (Rattus norvegicus, UniProt P48974).
T6 sequence (P48974 whole entry): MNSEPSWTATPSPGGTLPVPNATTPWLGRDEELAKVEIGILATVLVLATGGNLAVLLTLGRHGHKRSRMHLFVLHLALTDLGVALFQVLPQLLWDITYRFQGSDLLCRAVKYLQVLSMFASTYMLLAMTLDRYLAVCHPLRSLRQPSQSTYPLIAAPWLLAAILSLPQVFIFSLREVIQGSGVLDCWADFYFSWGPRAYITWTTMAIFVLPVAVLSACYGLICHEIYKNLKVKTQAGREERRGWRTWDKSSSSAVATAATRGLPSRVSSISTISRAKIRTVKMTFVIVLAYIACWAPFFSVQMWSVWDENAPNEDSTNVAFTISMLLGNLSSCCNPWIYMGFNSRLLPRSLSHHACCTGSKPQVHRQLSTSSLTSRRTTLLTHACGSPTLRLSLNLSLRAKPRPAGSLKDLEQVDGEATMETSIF
Kind of assay: Displacement of [3H]AVP from V1B receptor in Wistar rat pituitary membranes incubated for 60 mins by microplate scintillation counting method. It is filed as cell membranes.

Assay [21] deals with T3, Vasopressin V1a receptor. The assay can be described thus: Displacement of DY647 from SNAP-tagged V1A receptor (unknown origin) expressed in HEK293 cells by TR-FRET assay. It is filed as cell-based. In general terms: TR-FRET usually uses a lanthanide donor and a delayed reading to cut background.
Target sequence in this assay (P37288 whole entry): as the sequence (P37288 whole entry) above
In assay [22] the target is T3, Vasopressin V1a receptor. Kind of assay: Antagonist activity at human V1A receptor expressed in HEK cells assessed as inhibition of AVP-induced intracellular calcium flux incubated for 45 mins by Indo1-AM dye based fluorescence assay relative to AVP. It is filed as functional, cell-based.
Target sequence in this assay (P37288 whole entry): as the sequence (P37288 whole entry) above
The target in assay [23] is T3, Vasopressin V1a receptor. Kind of assay: Agonist activity at human V1A receptor expressed in HEK cells assessed as increase in intracellular calcium flux at 1 uM incubated for 45 mins by Indo1-AM dye based fluorescence assay relative to AVP. It is filed as functional, cell-based.
Target sequence in this assay (P37288 whole entry, looked up): as the sequence (P37288 whole entry) above
Assay [24] has as its target T7, Oxytocin receptor (Homo sapiens) (UniProt P30559).
T7 sequence (whole entry): T4 sequence (P30559 whole entry)
The assay can be described thus: Agonist activity at human OTR receptor expressed in CHO cells co-expressing NFAT-luciferase incubated for 5 hrs by luciferase reporter gene assay relative to OT. It is filed as functional, cell-based.

In assay [25] the target is T7, Oxytocin receptor (Homo sapiens). The assay can be described thus: Antagonist activity at human OTR expressed in HEK cells assessed as inhibition of OT-induced intracellular calcium flux at 1 uM incubated for 45 mins by Indo1-AM dye based fluorescence assay relative to OT. It is filed as functional, cell-based.
Assay [26] has the same target. Kind of assay: Agonist activity at human OTR expressed in HEK cells assessed as increase in intracellular calcium flux incubated for 45 mins by Indo1-AM dye based fluorescence assay relative to OT. It is filed as functional, cell-based.
Assay [27] deals with T4, Oxytocin receptor. The assay can be described thus: Agonist activity at human OTR expressed in HEK cells assessed as increase in intracellular calcium flux incubated for 45 mins by Indo1-AM dye based fluorescence assay. It is filed as functional, cell-based.
Assay [28] has as its target T4, Oxytocin receptor. Kind of assay: Displacement of DY647 from SNAP-tagged OTR receptor (unknown origin) expressed in HEK293 cells by TR-FRET assay. It is filed as cell-based.

T1 sequence (P30518 whole entry): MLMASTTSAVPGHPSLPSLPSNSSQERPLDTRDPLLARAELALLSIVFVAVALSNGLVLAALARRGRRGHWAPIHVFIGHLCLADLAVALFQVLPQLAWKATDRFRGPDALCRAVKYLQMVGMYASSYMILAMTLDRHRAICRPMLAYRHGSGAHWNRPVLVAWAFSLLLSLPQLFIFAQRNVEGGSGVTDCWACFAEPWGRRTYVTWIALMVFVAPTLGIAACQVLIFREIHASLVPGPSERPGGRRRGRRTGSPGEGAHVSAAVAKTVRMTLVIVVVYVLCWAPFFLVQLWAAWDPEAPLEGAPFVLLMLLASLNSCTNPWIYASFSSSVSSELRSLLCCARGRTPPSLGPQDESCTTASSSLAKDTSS

In the case of `CC(C)NC(=O)C[C@H]1CCCN(C(=O)c2ccc(N3CCCC3)cc2Cl)c2ccccc21`, the Ki – broadly, the dissociation constant of the complex between target and ligand, obtained from inhibition or displacement – on Vasopressin V2 receptor [1] worked out at 91.9 nM; at Vasopressin V1a receptor [4], 819 nM. Further, the IC50 (commonly the concentration that gives 50% inhibition) on Vasopressin V1b receptor [2] is > 100000 nM. In addition, the EC50 (in general, the concentration giving half of the maximal effect) at Vasopressin V2 receptor [3] is 189 nM.

For the compound `Cc1occc1C(=O)Nc1ccc(C(=O)N2CCC(F)(F)/C(=C\C(=O)N3CCC(N4CCCCC4)CC3)c3ccccc32)cc1`, the Ki came to 71 nM on Oxytocin receptor [5], 381 nM at Vasopressin V2 receptor [6], 0.3 nM at Vasopressin V1a receptor [7] and 25500 nM at Vasopressin V1b receptor [8].

As to `Cc1ccn(-c2ccc(C(=O)N3Cc4cccn4Cc4ccccc43)c(Cl)c2)n1`, the half-maximal inhibitory concentration (IC50) at Oxytocin receptor [9] came to 55 nM; against Vasopressin V1a receptor [12], 1660 nM. For the same compound, the Ki at Vasopressin V2 receptor [10] was 39.9 nM; at Vasopressin V1a receptor [14], 465 nM; at Vasopressin V1b receptor [15], > 1000 nM; at Oxytocin receptor [19], 125 nM. The Selectivity ratio in the assay filed under Homo sapiens [11] was 6.9; in the assay listed under Homo sapiens [18], 4. Moreover, on Vasopressin V1a receptor [13], the inhibition – broadly, how much of the control response was suppressed – worked out at 33%. The compound further showed an EC50 on Vasopressin V2 receptor [16] of 0.7 nM. Further, the Emax (usually the maximal effect, on the per cent scale that the assay sets) on Vasopressin V1a receptor [17] was < 10%.

For `Cc1nc2c([nH]1)-c1ccccc1N(C(=O)c1ccc(NC(=O)c3ccccc3-c3ccccc3)cc1)CC2` [CONIVAPTAN], the Ki on Vasopressin V1b receptor [20] was > 10000 nM.

As for `Cc1cc(C(=O)N2Cc3cnn(C)c3Nc3ccccc32)ccc1CNC(=O)N1CCC[C@H]1C(=S)N1CCCN(C)CC1`, the Ki was found to be 196 nM on Vasopressin V1a receptor [21] and 141 nM on Oxytocin receptor [28]. The IC50 on Vasopressin V1a receptor [22] came to 8 nM. Moreover, the Emax at Vasopressin V1a receptor [23] was 5 to 10%; in [24], 100%; in assay [26], 84%. Moreover, the inhibition in assay [25] was in the range of 5 to 10%. For the same compound, the EC50 at Oxytocin receptor [27] amounted to 28 nM.
